According to patent US20180289840A1, “Method for Evaluating Hematological Toxicity of Drug Under Evaluation, and Model for Evaluating Hematological Toxicity of Drug Under Evaluation” (Central Institute for Experimental Animals, priority 2015, published 2018):
Read-outs that look alike come from different tables or passages of the source.

How the values were obtained:
[1] = test system: human CD45+ cells (granulocytes-based progenitor cells); assay: Colony forming test on granulocytes-based myelopoiesis progenitor cells, human CD45+ bone marrow cells of humanized Tg-NOG mouse; type: cell-based; settings: for IC50: concentration at which formation of 50% of granulocyte-derived colonies is inhibited, read-out: IC50 (nM) hCD45+; for IC50 / IC90: cultured 16 days; for IC90: concentration at which formation of 90% of granulocyte-derived colonies is inhibited, read-out: IC90 (nM) hCD45+; for influence on the granulocytes-based progenitor cells in the bone marrow, human vs mouse: colony forming test, comparison hCD45+ vs mCD45+
Excerpt: (§1) The mouse at week 14 after the transplantation of the hCD34^+ cells derived from the human cord blood was euthanized by removing the blood from the abdominal aorta under anesthesia of isoflurane. Then, the femur was collected. The femur was sterilely washed using the Iscove's Modified Dulbecco's Medium (IMDM, available from Life Technologies) to prepare a suspension of cells. The suspension of cells was passed through a nylon filter (pore size of 35 μm, Cell Strainer, available from BD Biosciences) to obtain a filtrate as a solution of the bone marrow cells. A portion of the solution of the bone marrow cells was subjected to FACS analysis to calculate a ratio between the human-derived leucocytes (hCD45^+) and the mouse-derived leucocytes (mCD45^+).
The human 45^+ cells were suspended in a methyl cellulose medium (MethoCult H4534, available from Stem cell technologies) so as to be 5×10^4 cells/1.1 mL/dish. Then, EHC was added at 0.14 nM, 0.4 nM, 1.2 nM, 3.7 nM, 11 nM, or 33 nM. Meanwhile, PTX was added at 0.12 nM, 0.4 nM, 1.1 nM, 3.3 nM, 10 nM, 30 nM, or 90 nM. The resultant was seeded in a dish and was cultured for 16 days at 37° C. under 5% CO2.
(§2) As the vehicle control, dimethyl sulfoxide (DMSO, final concentration of 0.002 v/v %) was used. For each concentration, two dishes were used.
(§3) After a period of the cultivation was completed, the number of the colonies derived from the granulocytes formed was counted and an average number of the colonies in each concentration was calculated. An average number of the colonies in the vehicle control was considered as 100%. The average number of the colonies in each concentration was considered as a relative value (IC50 and IC90). Here, the IC50 means a concentration at which formation of 50% of the colonies is inhibited and the IC90 means a concentration at which formation of 90% of the colonies is inhibited.
(§4) The collection, preparation, and cultivation of the bone marrow cells and the calculation of the percentage of inhibition of colony formation were performed in the same manner as in Example 3-1.
The human CD45^+ cells were exposed to nogitecan at an exposure concentration of 0.41 nM, 1.2 nM, 3.7 nM, 11.1 nM, 33.3 nM, or 100 nM. Meanwhile, the other human CD45^+ cells were exposed to oxaliplatin at an exposure concentration of 123 nM, 370 nM, 1,111 nM, 3,333 nM, 10,000 nM, or 30,000 nM.
(§5) A physiological saline solution was used for the vehicle control of nogitecan and a distilled water was used for the vehicle control of oxaliplatin.
(§6) An average number of the colonies in the vehicle control was considered as 100%. The average number of the colonies in each concentration was considered as a relative value (IC50 and IC90). Here, the IC50 means a concentration at which formation of 50% of the colonies is inhibited and the IC90 means a concentration at which formation of 90% of the colonies is inhibited.

[2] = test system: mouse CD45+ cells (granulocytes-based progenitor cells); assay: Colony forming test on granulocytes-based myelopoiesis progenitor cells, mouse CD45+ bone marrow cells of humanized Tg-NOG mouse; type: cell-based; settings: cultured 8 days; for IC50: concentration at which formation of 50% of granulocyte-derived colonies is inhibited, read-out: IC50 (nM) mCD45+; for IC90: concentration at which formation of 90% of granulocyte-derived colonies is inhibited, read-out: IC90 (nM) mCD45+
Excerpt: as §1
The mouse CD45^+ cells were suspended in a methyl cellulose medium (available from MethoCult GF M3534, Stem cell technologies) so as to be 2×10^4 cells/1.1 mL/dish. Then, EHC (1.2 nM, 3.7 nM, 11 nM, 33 nM, 100 nM, or 300 nM) was added. Meanwhile, PTX (0.12 nM, 0.4 nM, 1.1 nM, 3.3 nM, 10 nM, 30 nM, or 90 nM) was added. The resultant was seeded in a dish and was cultured for 8 days at 37° C. under 5% CO2.
as §2, §3, §4
The mouse CD45^+ cells were exposed to nogitecan at an exposure concentration of 3.7 nM, 11.1 nM, 33.3 nM, 100 nM, 300 nM, or 900 nM. Meanwhile, the other mouse CD45^+ cells were exposed to oxaliplatin at an exposure concentration of 13.7 nM, 41.2 nM, 123 nM, 370 nM, or 1,111 nM.
as §5, §6

[3] = test system: human-derived leucocytes (hCD45+) and human-derived granulocytes (hCD66b+); type: in vivo; settings: oxaliplatin 20 mg/kg single intravenous
Protocol: (§7) Six-week-old Tg-NOG mice (24 females) were irradiated with X-rays of 2.5 Gy. After a period of from 3 hours to 4 hours, the CD34^+ cells derived from the human cord blood were transplanted at 40,000 cells/body. At 5 week after the transplantation, the peripheral blood was collected from the orbital sinus under anesthesia of isoflurane. Engraftment thereof in the peripheral blood was confirmed.
(§8) Eleven mice suitable for the evaluation were selected and divided into the control group (5 mice) and the oxaliplatin administration group (6 mice). The mice in the control group received a 5 w/v % glucose solution from the tail vein through single intravenous administration. Meanwhile, two mice of the 6 mice in the oxaliplatin administration group received oxaliplatin at 20 mg/kg (2 mg/mL, 10 mL/kg), another two mice in the oxaliplatin administration group received oxaliplatin at 30 mg/kg (3 mg/mL, 10 mL/kg), and the other two mice in the oxaliplatin administration group received oxaliplatin at 40 mg/kg (4 mg/mL, 10 mL/kg) from the tail vein through single intravenous administration. Regarding assignment of the animals, the animals were grouped so that an average value of the number of the human leucocytes and that of the number of the human granulocytes were almost the same.
(§9) The peripheral blood was collected from the orbital sinus under anesthesia of isoflurane at day 4, day 7, day 14, day 17, day 21, and day 28 after the administration. Then, the number of the leucocytes in the peripheral blood was measured with FACS. The animals administered at 30 mg/kg and the animals administered at 40 mg/kg died by day 7 after the administration.

[4] = test system: mouse-derived leucocytes (mCD45+) and mouse-derived granulocytes (mGr-1+); type: in vivo; settings: oxaliplatin 20 mg/kg single intravenous
Protocol: as §7, §8, §9

Tg-NOG mouse = assay: Survival and general condition of humanized Tg-NOG mice after single intravenous administration; type: in vivo
Protocol: as §7, §8, §9

[5] = Homo sapiens, Bone marrow cell, 384 h
[6] = Mus musculus, Bone marrow cell, 192 h

SMILES: CC(=O)O[C@H]1C(=O)[C@@]2(C)[C@H]([C@H](OC(=O)c3ccccc3)[C@]3(O)C[C@H](OC(=O)[C@H](O)[C@@H](NC(=O)c4ccccc4)c4ccccc4)C(C)=C1C3(C)C)[C@]1(OC(C)=O)CO[C@@H]1C[C@@H]2O [PTX, paclitaxel]
- IC50 [1, 5]: 83.9 nM
- IC90 [1, 5]: 84.5 nM
- influence on the granulocytes-based progenitor cells in the bone marrow, human vs mouse [1]: almost the same between the human and the mouse
- IC50 [2, 6]: 71.2 nM
- IC90 [2, 6]: 87.5 nM

SMILES: CCc1c2c(nc3ccc(O)cc13)-c1cc3c(c(=O)n1C2)COC(=O)[C@]3(O)CC [EHC, 7-Ethyl-10-hydroxycamptothecin]
- influence on the granulocytes-based progenitor cells in the bone marrow, human vs mouse [1]: higher in the human than in the mouse
- IC50 [1]: 11.3 nM
- IC90 [1]: 12.9 nM
- IC50 [2]: 106 nM
- IC90 [2]: 122 nM

SMILES: CC[C@@]1(O)C(=O)OCc2c1cc1n(c2=O)Cc2cc3c(CN(C)C)c(O)ccc3nc2-1 [Nogitecan, nogitecan]
- IC50 [1, 5]: 8.7 nM
- IC90 [1, 5]: 24.3 nM
- influence on the granulocytes-based progenitor cells in the bone marrow, human vs mouse [1]: higher in the human than in the mouse
- IC50 [2, 6]: 142 nM
- IC90 [2, 6]: 305 nM

SMILES: O=C1[O][Pt]2([NH][C@@H]3CCCC[C@H]3[NH]2)[O]C1=O [Oxaliplatin, oxaliplatin]
- influence on the granulocytes-based progenitor cells in the bone marrow, human vs mouse [1]: higher in the mouse than in the human
- IC50 [1]: 2770 nM
- IC90 [1]: 4660 nM
- IC50 [2]: 434 nM
- IC90 [2]: 846 nM
- change of human leucocytes in peripheral blood [3]: no considerable reduction
- day from which tendency of recovering of human-derived granulocytes was presented [3]: ≥ 7 days
- change of human-derived granulocytes ([3]; day 4 after the administration): slightly decreased
- difference between species: influence on the reduction in the leucocytes ([3]; human vs mouse leucocytes): more strongly developed in the human than in the mouse
- change of mouse-derived leucocytes (mCD45+) and mouse-derived granulocytes (mGr-1+) [4]: considerably decreased
- general condition of animals (Tg-NOG mouse; oxaliplatin 20 mg/kg single intravenous, day 17 after the administration): moribund condition
- death of animals, day after the administration (Tg-NOG mouse; oxaliplatin 30 mg/kg single intravenous): ≤ 7 days
- death of animals, day after the administration (Tg-NOG mouse; oxaliplatin 40 mg/kg single intravenous): ≤ 7 days
